23 molecules from patent publication US20250059179A1, “Heterocyclic Compounds and Methods of Use” (AMGEN INC., priority 2021, published 2025) can be followed below.

Test [1] has as its target His-tagged KRAS G12D protein (Homo sapiens, UniProt P01116, G12D). As to the kind of experiment: KRAS G12D TR-FRET Assay.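 Also: europium anti-His antibody paired with streptavidin-d2 as FRET partners, initial 30 min incubation, then peptide 1 h and detection reagents 1 h, all at room temperature.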 The test is classed as binding. As to conditions: biotinylated KRPep-2d substrate, 10 μM GDP. In general terms: TR-FRET usually uses a lanthanide donor and a delayed reading to cut background.
In test [2] the target is GDP-bound KRAS protein (aa 1-169), containing both G12D and C118A amino acid substitutions (Homo sapiens, UniProt P01116, C118A/G12D). In words: KRAS G12D Coupled Nucleotide Exchange Assay.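 Also: IC50 obtained by fitting the AlphaScreen signal with a four-parameter logistic curve.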 Format: biochemical. As to conditions: 2 h compound pre-incubation; SOS-mediated nucleotide exchange, cRAF AlphaScreen readout.
Chain of GDP-bound KRAS protein (aa 1-169), containing both G12D and C118A amino acid substitutions (P01116 1-169 isoform P01116-2 G12D/C118A): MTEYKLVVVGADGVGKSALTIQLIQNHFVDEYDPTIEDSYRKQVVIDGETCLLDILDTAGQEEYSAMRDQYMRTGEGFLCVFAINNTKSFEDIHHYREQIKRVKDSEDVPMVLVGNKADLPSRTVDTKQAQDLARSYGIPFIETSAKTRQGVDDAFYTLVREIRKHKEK

Chain of His-tagged KRAS G12D protein (P01116 1-188 isoform P01116-2 G12D): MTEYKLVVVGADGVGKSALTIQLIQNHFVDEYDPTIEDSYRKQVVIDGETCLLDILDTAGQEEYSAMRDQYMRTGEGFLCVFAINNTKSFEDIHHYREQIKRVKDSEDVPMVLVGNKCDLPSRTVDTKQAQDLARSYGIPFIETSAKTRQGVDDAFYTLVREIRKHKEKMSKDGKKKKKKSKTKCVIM

Consider `CN1C[C@H](F)C[C@H]1COc1nc(N2CCCNC(=O)C2)c2cc(Cl)c(-c3ccc(F)c4sc(N)nc34)c(F)c2n1` [Example 19, 4-(7-(2-amino-7-fluorobenzo[d]thiazol-4-yl)-6-chloro-8-fluoro-2-(((2S,4R)-4-fluoro-1-methylpyrrolidin-2-yl)methoxy)quinazolin-4-yl)-1,4-diazepan-2-one], for which 85 nM corresponded to half-maximal inhibition in test [1] (IC50). For the same molecule, the “Avg 2 h Coupled Exchange IC50” value in test [2] was found to be 62 nM.
The corresponding values for `CN1C[C@H](F)C[C@H]1COc1nc(N2CCNC(=O)CC2)c2cc(Cl)c(-c3ccc(F)c4sc(N)nc34)c(F)c2n1` [Example 21, 1-(7-(2-amino-7-fluorobenzo[d]thiazol-4-yl)-6-chloro-8-fluoro-2-(((2S,4R)-4-fluoro-1-methylpyrrolidin-2-yl)methoxy)quinazolin-4-yl)-1,4-diazepan-5-one] are 97 nM and 67 nM.
The corresponding values for `CN1CCC[C@H]1COc1nc(N2CCCNC(=O)C2)c2cc(Cl)c(-c3cccc4sc(N)nc34)c(F)c2n1` [Example 22, 4-(7-(2-aminobenzo[d]thiazol-4-yl)-6-chloro-8-fluoro-2-(((S)-1-methylpyrrolidin-2-yl)methoxy)quinazolin-4-yl)-1,4-diazepan-2-one] are 168 nM and 114 nM.
In the same order, the values of `CN1CCC[C@H]1COc1nc(N2CCNC(=O)C2)c2cc(Cl)c(-c3cccc4sc(N)nc34)c(F)c2n1` [Example 23, 4-(7-(2-aminobenzo[d]thiazol-4-yl)-6-chloro-8-fluoro-2-(((S)-1-methylpyrrolidin-2-yl)methoxy)quinazolin-4-yl)piperazin-2-one] are 678 nM and 166 nM.
For the molecule `CN1CCC[C@H]1COc1nc(N2CCNC(=O)CC2)c2cc(Cl)c(-c3cccc4sc(N)nc34)c(F)c2n1` [Example 24, 1-(7-(2-aminobenzo[d]thiazol-4-yl)-6-chloro-8-fluoro-2-(((S)-1-methylpyrrolidin-2-yl)methoxy)quinazolin-4-yl)-1,4-diazepan-5-one], it took 158 nM to reach half-maximal inhibition in test [1] (IC50). Moreover, the “Avg 2 h Coupled Exchange IC50” value in test [2] came out at 172 nM.
In the same order, the values of `CN1CCC[C@H]1COc1nc(N2CCN[C@@H](CO)C2)c2cc(Cl)c(-c3cccc4sc(N)nc34)c(F)c2n1` [Example 25, ((2R)-4-(7-(2-aminobenzo[d]thiazol-4-yl)-6-chloro-8-fluoro-2-(((S)-1-methylpyrrolidin-2-yl)methoxy)quinazolin-4-yl)piperazin-2-yl)methanol] are 239 nM and 181 nM.
The corresponding values for `CN1CCC[C@H]1COc1nc(N2CCN[C@@H](CC#N)C2)c2cc(Cl)c(-c3cccc4sc(N)nc34)c(F)c2n1` [Example 26, 2-((2S)-4-(7-(2-aminobenzo[d]thiazol-4-yl)-6-chloro-8-fluoro-2-(((S)-1-methylpyrrolidin-2-yl)methoxy)quinazolin-4-yl)piperazin-2-yl)acetonitrile] are 1210 nM and 409 nM.
`CN1CCC[C@H]1COc1nc(N2C[C@H]3CC[C@@H]2CN3)c2cc(Cl)c(-c3cccc4sc(N)nc34)c(F)c2n1` [Example 27, 4-(4-((1R,4R)-2,5-diazabicyclo[2.2.2]octan-2-yl)-6-chloro-8-fluoro-2-(((S)-1-methylpyrrolidin-2-yl)methoxy)quinazolin-7-yl)benzo[d]thiazol-2-amine] showed an IC50 in test [1] of 1210 nM. Also, the “Avg 2 h Coupled Exchange IC50” value in test [2] worked out at 429 nM.
With `CN1CCC[C@H]1COc1nc(N2CCNC[C@@H]2CCO)c2cc(Cl)c(-c3cccc4sc(N)nc34)c(F)c2n1` [Example 36, 2-((2S)-1-(7-(2-aminobenzo[d]thiazol-4-yl)-6-chloro-8-fluoro-2-(((S)-1-methylpyrrolidin-2-yl)methoxy)quinazolin-4-yl)piperazin-2-yl)ethan-1-ol], the IC50 in test [1] was 5850 nM. For the same molecule, in test [2], the “Avg 2 h Coupled Exchange IC50” value came to 2250 nM.
`CN1CCC[C@H]1COc1nc(N2CCNC[C@@H]2CO)c2cc(Cl)c(-c3cccc4sc(N)nc34)c(F)c2n1` [Example 37, ((2R)-1-(7-(2-aminobenzo[d]thiazol-4-yl)-6-chloro-8-fluoro-2-(((S)-1-methylpyrrolidin-2-yl)methoxy)quinazolin-4-yl)piperazin-2-yl)methanol]: in test [1], the 50% inhibitory concentration (IC50) is 1970 nM. Besides, the “Avg 2 h Coupled Exchange IC50” value in test [2] is 388 nM.
In the same order, the values of `CN1C[C@H](F)C[C@H]1COc1nc(N2C[C@H]3COC[C@@H](C2)N3)c2cc(Cl)c(-c3ccc(F)c4sc(N)nc34)c(F)c2n1` [Example 41, 4-(4-((1R,5S)-3-oxa-7,9-diazabicyclo[3.3.1]nonan-7-yl)-6-chloro-8-fluoro-2-(((2S,4R)-4-fluoro-1-methylpyrrolidin-2-yl)methoxy)quinazolin-7-yl)-7-fluorobenzo[d] thiazol-2-amine] are 79 nM and 65 nM.
Consider `Nc1nc2c(-c3c(Cl)cc4c(N5C[C@H]6COC[C@@H](C5)N6)nc(OC[C@@]56CCCN5C[C@H](F)C6)nc4c3F)ccc(F)c2s1` [Example 42, 4-(4-((1R,5S)-3-oxa-7,9-diazabicyclo[3.3.1]nonan-7-yl)-6-chloro-8-fluoro-2-(((2R,7aS)-2-fluorotetrahydro-1H-pyrrolizin-7a(5H)-yl)methoxy)quinazolin-7-yl)-7-fluorobenzo[d] thiazol-2-amine], for which the midpoint of inhibition in test [1], the IC50, lay at 12 nM. Also, in test [2], the “Avg 2 h Coupled Exchange IC50” value stood at 12 nM.
With `Nc1nc2c(-c3c(Cl)cc4c(N5CCNCC5)nc(OCC56CCCN5C(=O)CC6)nc4c3F)cccc2s1` (stereo not shown) [Example 43, 7a-(((7-(2-aminobenzo[d]thiazol-4-yl)-6-chloro-8-fluoro-4-(piperazin-1-yl)quinazolin-2-yl)oxy)methyl)hexahydro-3H-pyrrolizin-3-one], the IC50 in test [1] was determined as 3190 nM. In addition, the “Avg 2 h Coupled Exchange IC50” value in test [2] came out at 3290 nM.
In the same order, the values of `Nc1nc2c(-c3c(Cl)cc4c(N5CCNCC5)nc(OCC56CCCN5CCC6)nc4c3F)cccc2s1` [Example 44, 4-(6-chloro-8-fluoro-4-(piperazin-1-yl)-2-((tetrahydro-1H-pyrrolizin-7a(5H)-yl)methoxy)quinazolin-7-yl)benzo[d] thiazol-2-amine] are 30 nM and 14 nM.
In test [1], `C[C@@H](CN(C)C)Oc1nc(N2CCNCC2)c2cc(Cl)c(-c3cccc4sc(N)nc34)c(F)c2n1` [Example 48, 4-(6-chloro-2-(((S)-1-(dimethylamino)propan-2-yl)oxy)-8-fluoro-4-(piperazin-1-yl)quinazolin-7-yl)benzo[d] thiazol-2-amine] registered an IC50 of 159 nM. Besides, the “Avg 2 h Coupled Exchange IC50” value in test [2] is 26 nM.
`CN1C[C@H](F)C[C@H]1COc1nc(N2CCNCC2)c2cc(Cl)c(-c3cccc4sc(N)nc34)c(F)c2n1` [Example 49, 4-(6-chloro-8-fluoro-2-(((2S,4R)-4-fluoro-1-methyl-pyrrolidin-2-yl)methoxy)-4-(piperazin-1-yl)quinazolin-7-yl)benzo[d] thiazol-2-amine] yielded an IC50 in test [1] of 141 nM. In addition, the “Avg 2 h Coupled Exchange IC50” value in test [2] was determined as 38 nM.
In test [1], `Nc1nc2c(-c3c(Cl)cc4c(N5CCNCC5)nc(OCC56CCCN5CC(F)(F)C6)nc4c3F)cccc2s1` (stereo not shown) [Example 54, 4-(6-chloro-2-((2,2-difluorotetra-hydro-1H-pyrrolizin-7a(5H)-yl)methoxy)-8-fluoro-4-(piperazin-1-yl)quinazolin-7-yl)benzo[d] thiazol-2-amine] returned an IC50 of 87 nM. Moreover, the “Avg 2 h Coupled Exchange IC50” value in test [2] turned out to be 79 nM.
Molecule `Nc1nc2c(-c3c(Cl)cc4c(N5CCNCC5)nc(OC[C@@H]5C[C@H](F)CN5)nc4c3F)cccc2s1` [Example 55, 4-(6-chloro-8-fluoro-2-(((2S,4S)-4-fluoro-pyrrolidin-2-yl)methoxy)-4-(piperazin-1-yl)quinazolin-7-yl)benzo[d] thiazol-2-amine] displayed an IC50 in test [1] of 285 nM. The “Avg 2 h Coupled Exchange IC50” value in test [2] worked out at 106 nM.
The molecule `Nc1nc2c(-c3c(Cl)cc4c(N5CCNCC5)nc(OC[C@@H]5CC(F)(F)CN5)nc4c3F)cccc2s1` [Example 59, 4-(6-chloro-2-(((S)-4,4-difluoro-pyrrolidin-2-yl)methoxy)-8-fluoro-4-(piperazin-1-yl)quinazolin-7-yl)benzo[d] thiazol-2-amine] showed an IC50 in test [1] of 687 nM. Also, the “Avg 2 h Coupled Exchange IC50” value in test [2] was found to be 321 nM.
In test [1], `CN1C[C@@H](F)C[C@H]1COc1nc(N2CCNCC2)c2cc(Cl)c(-c3cccc4sc(N)nc34)c(F)c2n1` [Example 62, 4-(6-chloro-8-fluoro-2-(((2S,4S)-4-fluoro-1-methyl-pyrrolidin-2-yl)methoxy)-4-(piperazin-1-yl)quinazolin-7-yl)benzo[d] thiazol-2-amine] gave an IC50 of 673 nM. For the same molecule, the “Avg 2 h Coupled Exchange IC50” value in test [2] is 394 nM.
The molecule `CCN1CCC(COc2nc(N3CCNCC3)c3cc(Cl)c(-c4cccc5sc(N)nc45)c(F)c3n2)CC1` [Example 63, 4-(6-chloro-2-((1-ethylpiperidin-4-yl)methoxy)-8-fluoro-4-(piperazin-1-yl)quinazolin-7-yl)benzo[d] thiazol-2-amine] gave an IC50 in test [1] of 473 nM. The “Avg 2 h Coupled Exchange IC50” value in test [2] worked out at 429 nM.
`CN1CCCC[C@H]1COc1nc(N2CCNCC2)c2cc(Cl)c(-c3cccc4sc(N)nc34)c(F)c2n1` [Example 64, 4-(6-chloro-8-fluoro-2-(((S)-1-methyl-piperidin-2-yl)methoxy)-4-(piperazin-1-yl)quinazolin-7-yl)benzo[d] thiazol-2-amine]: in test [1], half-maximal inhibition (IC50) was put at 1190 nM. Moreover, the “Avg 2 h Coupled Exchange IC50” value in test [2] was 446 nM.
Molecule `CN1CC(F)(F)C[C@H]1COc1nc(N2CCNCC2)c2cc(Cl)c(-c3cccc4sc(N)nc34)c(F)c2n1` [Example 65, 4-(6-chloro-2-(((S)-4,4-difluoro-1-methyl-pyrrolidin-2-yl)methoxy)-8-fluoro-4-(piperazin-1-yl)quinazolin-7-yl)benzo[d] thiazol-2-amine] came in with an IC50 in test [1] of 1840 nM. In addition, in test [2], the “Avg 2 h Coupled Exchange IC50” value was determined as 504 nM.

Broadly, the IC50 is the concentration that inhibits the measured activity by half. Read a low IC50 as greater potency in that assay.
